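Compound exposure: 48 hours, 5 concentrations, 96-well plates. GI50 = concentration required for 50% inhibition of growth.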 Activity calls are given as the source filed them. No stated cut-off is given here; in the data, active = GI50 up to about 1.1 µM and inactive = higher.
Assays:
Assay in all cases: DTP human tumour cell line panel, 48 h
[1] = system: XF498
[2] = system: HOP-18
[3] = system: DLD-1
[4] = system: KM-20L2
[5] = system: M19-MEL
[6] = system: SNB-78
[7] = system: DMS-114
[8] = system: LXFL 529
[9] = system: RXF 631

Measured: GI50

CC1C(=O)C(C)C(c2cccs2)N(N=O)C1c1cccs1 (stereo not drawn)
inactive: [1] 14.8 µM | [2] 11.4 µM | [3] > 100 µM | [4] > 100 µM | [5] > 100 µM | [6] > 68.2 µM | [7] 95.1 µM

CC(NC(=O)C(C)NC(=O)C(N)CCP(C)(=O)O)C(=O)O (stereo not drawn)
inactive: [1] > 100 µM | [2] > 100 µM | [3] > 100 µM | [4] > 100 µM | [5] > 100 µM | [6] > 100 µM

Cc1nc2c(sc(=S)n2-c2ccccc2)c(=O)[nH]1
inactive: [2] > 100 µM | [3] > 100 µM | [8] > 100 µM

C=C1c2c(cc3c(c2O)c(=O)c2ccccc2n3C)OC1(C)C
inactive: [1] 28.6 µM | [2] 9.79 µM | [3] > 100 µM | [9] > 100 µM | [4] 8.71 µM | [5] > 100 µM | [6] 37.2 µM | [8] > 100 µM | [7] 99.8 µM

COc1ccc(/C=C2\CCNC2=O)cc1
inactive: [1] > 100 µM | [2] > 100 µM | [3] > 100 µM | [4] > 100 µM | [5] > 100 µM | [6] > 100 µM | [7] > 100 µM

c1c2c(cc(-n3nnc4c3CCCCCC4)c1-n1nnc3c1CCCCCC3)CCCCCC2
inactive: [1] 1.9 µM | [9] 10.1 µM | [5] 8.77 µM | [6] 13.6 µM

COc1ccccc1Cc1nc(-c2ccccc2)nn(C2OC(COC(C)=O)C(OC(C)=O)C(OC(C)=O)C2OC(C)=O)c1=S (stereo not drawn)
inactive: [1] 1.86 µM | [2] 27.9 µM | [3] > 31.3 µM | [4] 29.1 µM | [5] 32.7 µM | [6] 18.2 µM | [7] 27.6 µM

CCCCCCCCC(O)c1ccc(/C=C\C(O)CCCC(=O)O)s1 (stereo not drawn)
inactive: [1] > 100 µM | [2] > 100 µM | [3] > 100 µM | [4] > 100 µM | [5] > 100 µM | [6] > 100 µM | [8] > 100 µM | [7] > 100 µM

COC(=O)N/N=C(/CC1(O)C(=O)Nc2ccc([N+](=O)[O-])cc21)c1ccccc1 (stereo not drawn)
inactive: [1] 19.4 µM | [3] 46.7 µM | [4] > 100 µM | [5] 66.5 µM | [6] 20.9 µM | [8] 36.8 µM | [7] 41.9 µM

Reference: ChEMBL document CHEMBL1201862, “PubChem BioAssay data set” (2004)
